{
  "source": "patent US9340788B2",
  "about": "(priority 2007, dated 2016)",
  "key": {"HCMV": {"tested_on": "HCMV", "assay": "Viral attachment and internalization assay (pp65 immunofluorescence)", "format": "cell-based, Human cytomegalovirus", "protocol": "(A) HEL cells were pretreated with PBS (20 min 4° C.), IMC-3G3 (2 h, 37° C., 10 μg/ml), or PDGF-AA (20 min, 4° C., 10 ng/ml) prior to infection with HCMV (MOI of 1, 4° C., 1 h). Cells were returned to 37° C. for 30 minutes, and processed for pp65^HCMV and PDGFRα double immunofluorescence. […] All conditions were assayed in triplicate cultures. One hundred cells in 4 low magnification fields were counted. Bars represent SD.\nViral Attachment and Internalization Assays. Mouse fibroblasts and HEL cells (72 hours following siRNA transfections) were incubated with HCMV (MOI of 0.5) or mock treated for 1 hour at 4° C., after which cells were returned to 37° C. for 15, 30, or 60 min. Cells were fixed using methanol (20 min) and processed for pp65 immunofluorescence. Four low power fields were counted for each condition and pp65 positive were recorded for each 100 cells. Internalization assays were repeated twice."}, "human PDGFRα": {"molecular_target": "T1, human PDGFRα (Homo sapiens, UniProt P16234)", "T1 construct": "HEL cells that endogenously express PDGFRα; endogenous in cells; host or cells: HEL human embryonic lung fibroblasts (ATCC)", "T1 sequence (P16234 24-1089)": "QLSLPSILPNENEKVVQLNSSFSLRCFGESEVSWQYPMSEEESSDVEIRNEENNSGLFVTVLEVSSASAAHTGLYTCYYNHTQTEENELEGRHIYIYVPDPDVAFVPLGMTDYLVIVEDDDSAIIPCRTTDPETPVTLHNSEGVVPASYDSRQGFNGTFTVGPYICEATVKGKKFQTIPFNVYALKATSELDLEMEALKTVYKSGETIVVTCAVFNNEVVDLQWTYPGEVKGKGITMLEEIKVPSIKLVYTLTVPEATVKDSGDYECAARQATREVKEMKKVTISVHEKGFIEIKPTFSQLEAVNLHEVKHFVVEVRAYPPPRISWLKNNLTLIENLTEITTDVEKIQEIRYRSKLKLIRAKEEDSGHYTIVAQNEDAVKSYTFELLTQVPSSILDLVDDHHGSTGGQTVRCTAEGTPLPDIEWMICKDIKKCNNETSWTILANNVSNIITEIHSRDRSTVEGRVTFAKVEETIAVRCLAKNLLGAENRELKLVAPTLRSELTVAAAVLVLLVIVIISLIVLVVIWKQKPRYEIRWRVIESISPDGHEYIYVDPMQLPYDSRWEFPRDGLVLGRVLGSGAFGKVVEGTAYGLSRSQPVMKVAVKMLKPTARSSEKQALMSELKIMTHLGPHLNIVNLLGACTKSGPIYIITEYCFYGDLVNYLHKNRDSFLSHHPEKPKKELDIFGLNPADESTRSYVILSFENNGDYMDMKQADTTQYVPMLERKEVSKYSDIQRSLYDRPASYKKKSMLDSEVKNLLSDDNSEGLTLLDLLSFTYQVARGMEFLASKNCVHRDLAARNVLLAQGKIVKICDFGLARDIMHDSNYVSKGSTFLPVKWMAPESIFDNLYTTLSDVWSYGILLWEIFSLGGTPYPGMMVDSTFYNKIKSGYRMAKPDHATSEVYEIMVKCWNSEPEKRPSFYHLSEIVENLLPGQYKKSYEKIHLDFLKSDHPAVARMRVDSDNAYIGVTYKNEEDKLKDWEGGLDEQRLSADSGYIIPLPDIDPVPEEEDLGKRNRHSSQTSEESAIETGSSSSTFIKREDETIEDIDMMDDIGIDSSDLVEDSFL", "assay": "Human Phospho-PDGFRα ELISA", "format": "cell-based", "settings": "HEL; Towne, AD169 and TR strains; IMC-3G3 10 μg/ml, 2 h pretreatment; HCMV MOI=1, 10 min", "protocol": "(A) HEL cells stimulated with HCMV or PDGF-AA were subjected to immunoprecipitation and western blot analyses with indicated antibodies. (B) Phospho-PDGFRα ELISA of cells+/−pretreatment with IMC-3G3 (10 μg/ml, 2 h) followed by HCMV (MOI=1) or PDGF (10 ng/ml) for 10 min. Mean values (n=6)±S.D are shown. (C) Western blot of HEL mock, HCMV, or PDGF-AA stimulated (10 min), +/−IMC-3G3 (2 μg/ml) or Gleevec® (Imatinib) (100 nM). The same membrane was used for p-Akt^Ser 473 and Akt.\n(A) Immunofluorescence detection of gB (upper panels) and PDGFRα (lower panels) in PDGFRα KO cells and PDGFRα overexpressing (OE) cells, following incubation with the gB peptide or mock treatment. Reduced PDGFRα surface staining in gB-treated cells is likely due to receptor internalization. (B) and (C) Immunoprecipitation of PDGFRα and gB from HEL lysates and full-length soluble gB alone or pre-incubated together. Immunoprecipitates were subjected to western blot with the indicated antibodies. (D) ELISA of hPDGFRα phosphorylation after HCMV stimulation (MOI=1), PDGF (10 ng/ml) or recombinant soluble gB (30 μg/ml) in presence or absence of gB neutralizing antibodies 7-17 and Mab 758 (5 μg/ml); bars, ±S.D. (E) Portions of same lysates used in (D) were analyzed by western blot with indicated antibodies.\nHuman Phospho-PDGFRα ELISA. […] Reaction products were read using a microplate reader set at 450 nm. […]"}},
  "data": [
    {"substance": "IMC-3G3: humanized PDGFRα blocking antibody (ImClone Inc.)", "values": [
      {"measurement": "inhibition of HCMV entry (pp65 positive cells)", "setting": "HCMV; HEL cells, IMC-3G3 2 h, 37° C., 10 μg/ml, PDGF-AA 20 min, 4° C., 10 ng/ml, HCMV MOI of 1, 30 min at 37° C.", "result": "~45", "unit": "%"},
      {"measurement": "HCMV viral internalization", "setting": "HCMV; human epithelial, endothelial, and fibroblast cells", "result": "completely inhibited"},
      {"measurement": "PDGFRα phosphorylation induced by HCMV strains", "setting": "human PDGFRα", "result": "significantly inhibited"}
    ]}
  ]
}
